Source: PMC4998004, “aPKC Inhibition by Par3 CR3 Flanking Regions Controls Substrate Access and Underpins Apical-Junctional Polarization” (Developmental Cell, 2016)
Substitutions are numbered along the chain they refer to. Non-standard residues stand in square brackets, D forms with d. Residues, ends and D or L forms follow the SMILES beside them. No end group written: not given here. pS = N[C@@H](COP(=O)(O)O)C(=O)O

Legend:
[1] = target: T1, PKCιKD-2P (primed human PKC-iota kinase domain) (Homo sapiens, UniProt P41743, C595S); test: Fluorescence anisotropy binding assay with fluorescein-labelled peptides; conditions: for Kd: Figure S4D, fluorescein-labelled εPSS peptides
T1 construct: encoding residues 248–596 (GenBank: NM_002740.5); GST (followed by a 3C protease site) (N, cleaved yes); made in house; host or cells: Hi5 insect cells, baculovirus, co-infected with a PDK-1 virus
T1 sequence (P41743 248-596 C595S): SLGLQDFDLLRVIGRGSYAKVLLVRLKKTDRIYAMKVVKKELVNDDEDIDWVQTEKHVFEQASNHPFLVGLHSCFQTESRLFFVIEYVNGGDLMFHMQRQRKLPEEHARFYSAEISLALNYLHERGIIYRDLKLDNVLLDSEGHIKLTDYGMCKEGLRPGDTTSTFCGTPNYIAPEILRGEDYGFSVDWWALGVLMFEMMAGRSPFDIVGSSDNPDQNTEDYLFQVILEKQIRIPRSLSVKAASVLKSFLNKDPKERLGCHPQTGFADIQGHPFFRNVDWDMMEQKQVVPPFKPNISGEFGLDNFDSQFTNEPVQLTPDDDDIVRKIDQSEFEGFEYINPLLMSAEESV
Protocol: The ADP Quest kit (DiscoveRx) was used to determine the kcat app and KM app values for ATP against the PKCιKD-1P and PKCιKD-2P using a series of synthetic peptide substrates as described by [Kjaer et al. (2013)]. The reactions were measured every 2 min for 30 min in a 384-well plate using a Safire^2 plate reader (Tecan). The kinetic constants were determined by fitting the data to the Michaelis-Menten equation. Data are represented as mean ± SEM. Fluorescence anisotropy assays were performed to determine the KD for each peptide labeled with a fluorescein tag following standard protocols using a Safire^2 plate reader (Tecan). The anisotropy values were normalized and the KD was determined using non-linear regression. All experiments were performed in triplicate and for at least three independent protein preparations. […]
Several synthetic peptide substrates were used including a model peptide […]
(§1) ([…]) derived from a PKCε pseudo-substrate sequence with an alanine-serine change. We found this peptide to be an efficient substrate peptide for aPKC isozymes. Peptides from human Par3CR3 (residues 816-835) and F-X-R short […]
peptide ([…]) related to the Nishikawa and co-workers consensus were also used in the study (Nishikawa et al., 1997). […]
The kinetic constants were determined by fitting the data to […]
Fluorescence anisotropy binding assays
Fluorescence anisotropy assays were performed to determine the Kd for each peptide following a previously described protocol (Guettler et al., 2008). Binding assays were performed in 20 mM Tris pH 7.5, 50 mM NaCl, 5% glycerol and 0.5 mM TCEP. The reaction mixtures contained fluorescein labelled peptides at a constant 50 nM concentration, while the protein concentration ranged from 0-200 µM. The 20 µl reactions were carried out in 384-well plate and measured after 30 minutes on the Safire2 plate reader (Tecan) with the excitation at 470 nm and emission at 525 nm. […]

[2] = target: T1, PKCιKD-2P (primed human PKC-iota kinase domain); test: In vitro kinase assay (ADP Quest), peptide as substrate, Michaelis-Menten kinetics; type: biochemical; conditions: for increase of apparent kcat relative to wild-type Par3CR3: phosphorylation by PKCιKD-2P, Figures 5A and 5C
Protocol: The ADP Quest kit (DiscoveRx) was used to determine the kcat app and KM app values for ATP against the PKCιKD-1P and PKCιKD-2P using a series of synthetic peptide substrates as described by [Kjaer et al. (2013)]. The reactions were measured every 2 min for 30 min in a 384-well plate using a Safire^2 plate reader (Tecan). The kinetic constants were determined by fitting the data to the Michaelis-Menten equation. Data are represented as mean ± SEM. Fluorescence anisotropy assays were performed to determine the KD for each peptide labeled with a fluorescein tag following standard protocols using a Safire^2 plate reader (Tecan). The anisotropy values were normalized and the KD was determined using non-linear regression. All experiments were performed in triplicate and for at least three independent protein preparations.
The ADP Quest kit (DiscoveRx) was used to determine the kcat app and Km app values for ATP against the PKCι KD-1P and PKCι KD-2P. The assay uses a coupled reaction to convert ADP to a product that has a fluorescence excitation at 530 nm and emission at 590 nm. Several synthetic peptide substrates were used including a model peptide […]
as §1
peptide ([…]) related to the Nishikawa and co-workers consensus were also used in the study (Nishikawa et al., 1997). For the kcat app and Km app reactions, the ATP concentration ranged from 0-200 µM, while the synthetic peptide substrates were kept constant at 200 µM to avoid product inhibition. The reactions were measured every two minutes for 30 minutes in a 384-well plate using a Safire 2 plate reader (Tecan). The kinetic constants were determined by fitting the data to Michaelis–Menten equation using the graphics program Prism (GraphPad Prism, version 5.0d, GraphPad Software). […]

[3] = target: T2, human PKC-iota kinase domain, primed active form (PKCιKD-2P) (human, UniProt P41743 248-596, phosphothreonine at 412 and 564 (pT412, pT564)); test: FP
T2 chain: T1 sequence (P41743 248-596 C595S) with S348C

[4] = target: T3, human PKC-iota kinase domain, primed active form (PKCιKD-2P) (human, UniProt P41743 248-596, phosphothreonine at 412 and 564 (pT412, pT564)); test: cell-based or functional assay
T3 sequence (looked up): T1 sequence (P41743 248-596 C595S) with S348C

Molecule: CSCC[C@H](NC(=O)[C@H](COP(=O)(O)O)NC(=O)[C@H](CCC(N)=O)NC(=O)[C@H](CCCNC(=N)N)NC(=O)CNC(=O)[C@H](Cc1ccccc1)NC(=O)CNC(=O)[C@H](CCC(=O)O)NC(=O)[C@H](CCCNC(=N)N)NC(=O)[C@H](CCC(N)=O)NC(=O)[C@H](Cc1ccccc1)NC(=O)[C@H](C)NC(=O)[C@@H](N)CC(C)C)C(=O)N[C@@H](CO)C(=O)N[C@@H](CCC(=O)O)C(=O)N[C@@H](CCCCN)C(=O)N[C@@H](CCCNC(=N)N)C(=O)N[C@H](C(=O)N[C@@H](CCCCN)C(=O)N[C@@H](CCC(N)=O)C(=O)O)[C@@H](C)O [Par-3CR3pS827] (H-LAFQREGFGRQ[pS]MSEKRTKQ-OH; N-terminus and C-terminus assumed)
- interaction with / affinity for PKCιKD-2P (in words) [1]: two orders of magnitude lower

Molecule: A-X-A + A-A-T: Par3CR3 combining both site 1 and site 3 mutations (LAAQAEGFGRQSMSEAATK)
- interaction with / affinity for PKCιKD-2P (in words) [1]: no measurable interaction
- phosphorylation as substrate by PKCι in vitro (in words) ([2]; in vitro kinase assay): not detectably phosphorylated

Molecule: CSCC[C@H](NC(=O)[C@H](CO)NC(=O)[C@H](CCC(N)=O)NC(=O)[C@H](CCCNC(=N)N)NC(=O)CNC(=O)[C@H](Cc1ccccc1)NC(=O)CNC(=O)[C@H](CCC(=O)O)NC(=O)[C@H](C)NC(=O)[C@H](CCC(N)=O)NC(=O)[C@H](C)NC(=O)[C@H](C)NC(=O)[C@@H](N)CC(C)C)C(=O)N[C@@H](CO)C(=O)N[C@@H](CCC(=O)O)C(=O)N[C@@H](CCCCN)C(=O)N[C@@H](CCCNC(=N)N)C(=O)N[C@H](C(=O)N[C@@H](CCCCN)C(=O)N[C@@H](CCC(N)=O)C(=O)O)[C@@H](C)O [Par-3CR3AXA] (H-LAAQAEGFGRQSMSEKRTKQ-OH; N-terminus and C-terminus assumed)
- increase of apparent kcat relative to wild-type Par3CR3 [2]: 57 fold

Molecule: CSCC[C@H](NC(=O)[C@H](C)NC(=O)[C@H](CCC(N)=O)NC(=O)[C@H](CCCNC(=N)N)NC(=O)CNC(=O)[C@H](Cc1ccccc1)NC(=O)CNC(=O)[C@H](CCC(=O)O)NC(=O)[C@H](CCCNC(=N)N)NC(=O)[C@H](CCC(N)=O)NC(=O)[C@H](Cc1ccccc1)NC(=O)[C@H](C)NC(=O)[C@@H](N)CC(C)C)C(=O)N[C@@H](CO)C(=O)N[C@@H](CCC(=O)O)C(=O)N[C@@H](CCCCN)C(=O)N[C@@H](CCCNC(=N)N)C(=O)N[C@H](C(=O)N[C@@H](CCCCN)C(=O)N[C@@H](CCC(N)=O)C(=O)O)[C@@H](C)O [S827A] (H-LAFQREGFGRQAMSEKRTKQ-OH; N-terminus and C-terminus assumed)
- kcat app ([2]; Figure 5A, ADP Quest, read every 2 min for 30 min, Michaelis-Menten fit, mean ± SEM): 0.0167 ± 0.0017 s⁻¹

Molecule: CSCC[C@H](NC(=O)[C@H](CCCNC(=N)N)NC(=O)[C@@H](N)CCC(=O)O)C(=O)N[C@@H](CCCNC(=N)N)C(=O)N1CCC[C@H]1C(=O)N[C@@H](CCCNC(=N)N)C(=O)N[C@@H](CCCCN)C(=O)N[C@@H](CCCNC(=N)N)C(=O)N[C@@H](CCC(N)=O)C(=O)NCC(=O)N[C@@H](CO)C(=O)N[C@H](C(=O)N[C@@H](CCCNC(=N)N)C(=O)N[C@@H](CCCNC(=N)N)C(=O)N[C@@H](CCCNC(=N)N)C(=O)N[C@H](C(=O)N[C@@H](Cc1c[nH]cn1)C(=O)N[C@@H](CCC(N)=O)C(=O)N[C@H](C(=O)N[C@@H](CC(N)=O)C(=O)O)C(C)C)C(C)C)C(C)C [εpss, reference compound] (H-ERMRPRKRQGSVRRRVHQVN-OH)
- Kd [1]: 13.3 ± 2.1 µM

Molecule: CSCC[C@H](NC(=O)[C@H](CCCNC(=N)N)NC(=O)[C@@H](N)CCC(=O)O)C(=O)N[C@@H](CCCNC(=N)N)C(=O)N1CCC[C@H]1C(=O)N[C@@H](CCCNC(=N)N)C(=O)N[C@@H](CCCCN)C(=O)N[C@@H](CCCNC(=N)N)C(=O)N[C@@H](CCC(N)=O)C(=O)NCC(=O)N[C@@H](CO)C(=O)N[C@H](C(=O)N[C@@H](CCCNC(=N)N)C(=O)N[C@@H](CCCNC(=N)N)C(=O)N[C@@H](CCCNC(=N)N)C(=O)N[C@@H](Cc1ccccc1)C(=O)N[C@@H](Cc1c[nH]cn1)C(=O)N[C@@H](CCC(N)=O)C(=O)N[C@H](C(=O)N[C@@H](CC(N)=O)C(=O)O)C(C)C)C(C)C [ε +5Fpss] (H-ERMRPRKRQGSVRRRFHQVN-OH)
- Kd [1]: 16.4 ± 3.5 µM

Molecule: CSCC[C@H](NC(=O)[C@H](CO)NC(=O)[C@H](CCC(N)=O)NC(=O)[C@H](CCCNC(=N)N)NC(=O)CNC(=O)[C@H](Cc1ccccc1)NC(=O)CNC(=O)[C@H](CCC(=O)O)NC(=O)[C@H](CCCNC(=N)N)NC(=O)[C@H](CCC(N)=O)NC(=O)[C@H](Cc1ccccc1)NC(=O)[C@H](C)NC(=O)[C@@H](N)CC(C)C)C(=O)N[C@@H](CO)C(=O)N[C@@H](CCC(=O)O)C(=O)N[C@@H](C)C(=O)N[C@@H](C)C(=O)N[C@H](C(=O)N[C@@H](CCCCN)C(=O)N[C@@H](CCC(N)=O)C(=O)O)[C@@H](C)O [Par-3CR3AAT] (H-LAFQREGFGRQSMSEAATKQ-OH; N-terminus and C-terminus assumed)
- increase of apparent kcat relative to wild-type Par3CR3 [2]: 18 fold

Molecule: CSCC[C@H](NC(=O)[C@H](CCCNC(=N)N)NC(=O)[C@@H](N)CCC(=O)O)C(=O)N[C@@H](CCCNC(=N)N)C(=O)N1CCC[C@H]1C(=O)N[C@@H](Cc1ccccc1)C(=O)N[C@@H](CCCCN)C(=O)N[C@@H](CCCNC(=N)N)C(=O)N[C@@H](CCC(N)=O)C(=O)NCC(=O)N[C@@H](CO)C(=O)N[C@H](C(=O)N[C@@H](CCCNC(=N)N)C(=O)N[C@@H](CCCNC(=N)N)C(=O)N[C@@H](CCCNC(=N)N)C(=O)N[C@H](C(=O)N[C@@H](Cc1c[nH]cn1)C(=O)N[C@@H](CCC(N)=O)C(=O)N[C@H](C(=O)N[C@@H](CC(N)=O)C(=O)O)C(C)C)C(C)C)C(C)C [ε -5Fpss] (H-ERMRPFKRQGSVRRRVHQVN-OH)
- Kd [1]: 1.8 ± 0.1 µM

Molecule: LAFQREGFGRQ[pS]MSEKRTK (also: fluorescein label (position not given here)) [phospho-S827 Par3 peptide (PKCι reaction product)]
- Kd [3]: 115 µM

Molecule: LAAQAEGFGRQSMSEKRTK (also: fluorescein label (position not given here)) [Par3CR3 A-X-A mutant peptide (F-Q-R to A-Q-A, site 1 affinity arm)]
- fold increase of the apparent kcat of Par3CR3 phosphorylation by PKCιKD-2P, in vitro kinase assay [4]: 57 fold
- Kd [3]: 228 µM

Molecule: LAFQREGFGRQSMSEAATK (also: fluorescein label (position not given here)) [Par3CR3 A-A-T mutant peptide (K-R-T to A-A-T, site 3 inhibitory arm)]
- fold increase of the apparent kcat of Par3CR3 phosphorylation by PKCιKD-2P, in vitro kinase assay [4]: 18 fold
- Kd [3]: 424 µM
